According to PMC4731787, “Structural basis for the recognition of two consecutive mutually interacting DPF motifs by the SGIP1 μ homology domain” (Scientific Reports, 2016):
Residue numbers refer to the chain shown, from its start.

T1: SGIP1 µHD N670D (Homo sapiens, UniProt Q9BQI5, N670D)
T1 construct: the SGIP1 μHD (residues 552 to 828); GST (N, cleaved yes); made in house; host or cells: Escherichia coli (as for the wild-type μHD)
T1 sequence (Q9BQI5 552-828 N670D): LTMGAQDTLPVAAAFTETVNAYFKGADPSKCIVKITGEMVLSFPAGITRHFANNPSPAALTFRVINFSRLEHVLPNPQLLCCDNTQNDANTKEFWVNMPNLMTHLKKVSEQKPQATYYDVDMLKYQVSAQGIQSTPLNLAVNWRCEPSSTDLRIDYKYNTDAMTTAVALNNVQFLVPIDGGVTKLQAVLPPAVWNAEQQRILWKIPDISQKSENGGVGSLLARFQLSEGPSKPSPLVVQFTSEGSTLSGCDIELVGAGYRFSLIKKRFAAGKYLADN

T2: SGIP1 μHD (residues 552 to 828) (Homo sapiens, UniProt Q9BQI5)
T2 construct: the SGIP1 μHD (residues 552 to 828); GST (N, cleaved yes); made in house; host or cells: Escherichia coli BL21-Gold (DE3) or Rosetta2
T2 sequence (Q9BQI5 552-828): T1 sequence (Q9BQI5 552-828 N670D) with D119N

T3: SGIP1 µHD K816E (Homo sapiens, UniProt Q9BQI5, K816E)
T3 construct: the SGIP1 μHD (residues 552 to 828); GST (N, cleaved yes); made in house; host or cells: Escherichia coli (as for the wild-type μHD)
T3 sequence (Q9BQI5 552-828 K816E): T1 sequence (Q9BQI5 552-828 N670D) with D119N, K265E

T4: FCHo1 µHD (residues 623 to 889) (Homo sapiens, UniProt O14526)
T4 construct: GST (N, cleaved yes); made in house; host or cells: Escherichia coli (as for the SGIP1 μHD)
T4 sequence (O14526 623-889): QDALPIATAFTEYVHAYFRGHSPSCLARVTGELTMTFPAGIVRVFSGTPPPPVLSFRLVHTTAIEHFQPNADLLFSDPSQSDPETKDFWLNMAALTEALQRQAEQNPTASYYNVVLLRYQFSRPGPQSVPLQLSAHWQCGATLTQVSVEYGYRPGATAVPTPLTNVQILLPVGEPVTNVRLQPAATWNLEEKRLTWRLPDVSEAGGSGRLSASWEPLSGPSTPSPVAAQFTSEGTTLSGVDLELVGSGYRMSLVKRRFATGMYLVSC

T5: SGIP1 μ homology domain (residues 552 to 828) (human, UniProt Q9BQI5-1 552-828)
T5 construct: A SeMet-substituted form (E. coli B834(DE3)) was used only for the structure of the domain alone; also called SGIP1 μHD; μHD; source: E. coli BL21-Gold (DE3) or Rosetta2, purified (Glutathione Sepharose, 3C protease cleavage on the column, Superdex 200)
T5 sequence (looked up): T1 sequence (Q9BQI5 552-828 N670D) with D119N

T6: FCHo1 μ homology domain (residues 623 to 889) (human, UniProt O14526-1 623-889)
T6 construct: FCHo1 (FCH domain only 1), human, μ homology domain, residues 623-889; also called FCHo1 μHD; source: E. coli, purified in the same manner as for the SGIP1 μHD
T6 sequence (looked up): T4 sequence (O14526 623-889)

B1: FCHo1 µ homology domain (µHD), residues 623 to 889 (domain or fragment, human, UniProt O14526-1 623-889, looked up)
chain: T4 sequence (O14526 623-889)
notes: also called FCHo1 µHD; human FCHo1 µHD (aa623–889); source: E. coli, expressed and purified in the same manner as the SGIP1 µHD
B2: Eps15-618–654 (domain or fragment, human, UniProt P42566-1 618-654, looked up)
chain: DFFQSDPFVGSDPFKDDPFGKIDPFGGDPFKGSDPFA
notes: also called 37-residue region containing six consecutive DPF motifs; source: E. coli, purified in the same manner as for the SGIP1 μHD
B3: Eps15-618–654 (domain or fragment, human)
chain: GPLGSYDFFQSDPFVGSDPFKDDPFGKIDPFGGDPFKGSDPFA
notes: source: E. coli, expressed and purified in the same manner as the SGIP1 µHD

Experiments:
[1] = molecular target: T1, SGIP1 µHD N670D; assay: ITC of Eps15 fragments with the SGIP1 μHD N670D mutant; format: binding
Experimental: (§1) For the majority of the ITC experiments, the SGIP1 μHD, its mutants, or the FCHo1 μHD, in 50 mM Tris-HCl buffer (pH 8.0) containing 50 mM NaCl, was loaded in the sample cell, in a volume of 1.42 ml, and titrated with various Eps15-derived fragments or peptides in the same buffer, with an initial 5 μl injection and subsequent 10 μl injections, for a total of 25 injections. The titrations were performed while the samples were stirred at 310 r.p.m. at 25 °C. Each injection was followed by an interval of 4 min, to allow baseline stabilization. For the other ITC experiments indicated in Supplementary Table 2, the Eps15-derived fragments or peptides in the sample cell were titrated with the SGIP1 or FCHo1 μHD. All ITC experiments were performed on a VP-ITC microcalorimeter (MicroCal, LLC) and repeated twice, and the data were processed with the program NITPIC[42]. The two data sets from each ITC experiment were analyzed by global weighted least-squares fitting with the program SEDPHAT[43]. Figures for the ITC data were created with the program GUSSI (http://biophysics.swmed.edu/MBR/software.html). To obtain the values of the traditional stoichiometric parameter N in our ITC data analyses (Supplementary Table 2), we used the values of the parameters of the incompetent fractions of proteins and ligands. […]

[2] = molecular target: T2, SGIP1 μHD (residues 552 to 828); assay: ITC of Eps15 fragments with the SGIP1 μHD; format: binding; details: for -TΔS / ΔG / ΔH: 25 °C; for -TΔS / ΔG / ΔH / N (binding ratio of Eps15 fragment to μHD): μHD in cell titrated with fragment, single-site model; for ΔH / N (binding ratio of Eps15 fragment to μHD): ± 68.3% confidence interval
In short: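 Isothermal titration calorimetry was run at 25 °C in 50 mM Tris-HCl pH 8.0, 50 mM NaCl, mostly titrating Eps15 fragments or peptides into μHD protein in the cell (25 injections, 4 min apart). Some runs reversed the titration direction. Duplicate runs were globally fitted to single- or two-site models, with N derived from incompetent-fraction parameters.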

[3] = molecular target: T3, SGIP1 µHD K816E; assay: ITC of Eps15 fragments with the SGIP1 μHD K816E mutant; format: binding
Experimental: as §1

[4] = molecular target: T4, FCHo1 µHD (residues 623 to 889); assay: ITC of Eps15 fragments with the FCHo1 μHD; format: binding; details: FCHo1 μHD in cell titrated with fragment, single-site model
Experimental: For the majority of the ITC experiments, the SGIP1 μHD, its mutants, or the FCHo1 μHD, in 50 mM Tris-HCl buffer (pH 8.0) containing 50 mM NaCl, was loaded in the sample cell, in a volume of 1.42 ml, and titrated with various Eps15-derived fragments or peptides in the same buffer, with an initial 5 μl injection and subsequent 10 μl injections, for a total of 25 injections. The titrations were performed while the samples were stirred at 310 r.p.m. at 25 °C. Each injection was followed by an interval of 4 min, to allow baseline stabilization. For the other ITC experiments indicated in Supplementary Table 2, the Eps15-derived fragments or peptides in the sample cell were titrated with the SGIP1 or FCHo1 μHD. All ITC experiments were performed on a VP-ITC microcalorimeter (MicroCal, LLC) and repeated twice, and the data were processed with the program NITPIC[42]. The two data sets from each ITC experiment were analyzed by global weighted least-squares fitting with the program SEDPHAT[43]. Figures for the ITC data were created with the program GUSSI (http://biophysics.swmed.edu/MBR/software.html). To obtain the values of the traditional stoichiometric parameter N in our ITC data analyses (Supplementary Table 2), we used the values of the parameters of the incompetent fractions of proteins and ligands. […] The values of the incompetent fractions are between 0 and 1, whereas the other parameter affecting the traditional parameter N, the number of sites, was fixed as 1 and 2, for the single- and two-site models, respectively. Thus, in the two-site model, the values of N for the first and second sites are identical in our ITC data analyses (Supplementary Table 2).

[5] = test system: human full-length FCHo1; details: pull-down assay; lower than the other longer fragments with more DPF motifs tested in the same reference; ref Umasankar et al.23; cited from earlier work
Source text: page 12: Supplementary Table 3 Regions of Eps15, Eps15R, and Dab2, involved in binding to the µHDs of SGIP1/ SGIP1α/FCHo1/FCHo2 from various sources. µHD-containing protein µHD-binding Region involved in binding Number of DPF motifs Method used to confirm binding Strength of Reference protein to the µHD in the binding region affinity mouse SGIP1 µHD (aa501–807) Eps15 a residues 594–896 15 b pull-down assay (competition) unknown Reider et al. 8 mouse SGIP1α µHD (aa561–854) rat Eps15 residues 593–894 15 pull-down assay unknown Uezu et al.19 mouse SGIP1α µHD (aa428–854) rat Eps15 residues 636–747 ...

[6] = molecular target: B3; assay: ITC; Eps15 fragment in the sample cell, titrated with the SGIP1 or FCHo1 µHD; 50 mM Tris-HCl (pH 8.0), 50 mM NaCl, 25 °C; VP-ITC; two data sets fitted globally (NITPIC, SEDPHAT); single-site or two-site model as named in the quantity; details: both partners purified
[7] = molecular target: T5, SGIP1 μ homology domain (residues 552 …); assay: ITC; VP-ITC, 25 °C, 50 mM Tris-HCl pH 8.0, 50 mM NaCl; for the majority the μHD (SGIP1, its mutants or FCHo1) in the cell, titrated with Eps15 fragments or peptides, for others the reverse (Supplementary Table 2); repeated twice, global fit with SEDPHAT, single-site or two-site model; details: both partners purified
[8] = molecular target: T6, FCHo1 μ homology domain (residues 623 …); assay: as above; details: both partners purified
[9] = molecular target: B1; assay: ITC; µHD, µHD mutant or α-adaptin appendage domain in the sample cell, titrated with the Eps15 fragment or peptide; 50 mM Tris-HCl (pH 8.0), 50 mM NaCl, 25 °C; VP-ITC; two data sets fitted globally (NITPIC, SEDPHAT); single-site model; details: both partners purified
[10] = molecular target: B1; assay: ITC; Eps15 fragment in the sample cell, titrated with the SGIP1 or FCHo1 µHD; 50 mM Tris-HCl (pH 8.0), 50 mM NaCl, 25 °C; VP-ITC; two data sets fitted globally (NITPIC, SEDPHAT); single-site or two-site model as named in the quantity; details: both partners purified
[11] = 25 °C, 50 mM Tris-HCl pH 8.0, 50 mM NaCl, mutant μHD in cell titrated with fragment, two runs

Question: Which results are given for Ac-YDPFGGDPFKG-NH2 [Eps15-640–649]?
Answer: binding to SGIP1 μHD with Asn670 replaced by Asp (in words) [1]: abolished the binding; Kd [1, 11]: below detection limit; -TΔS [2]: 2.106 kcal/mol; ΔG [2]: -6.166 kcal/mol; ΔH [2]: -8.272 ± 0.679 kcal/mol; N (binding ratio of Eps15 fragment to μHD) [2]: 0.66 ± 0.03

Question: With Ac-YDPFGGDPFKGSDPFA-NH2 [Eps15-640–654] as the molecule, how does the “binding to SGIP1 μHD with Lys816 replaced by Glu (in words)” value [3] read?
Answer: abolished the binding

Question: What about the Kd [3, 11] of the same molecule?
Answer: below detection limit

Question: And the Kd ([4]; 25 °C, 50 mM Tris-HCl pH 8.0, 50 mM NaCl, global fit of two runs, ± 68.3% confidence interval)?
Answer: 5500 ± 1400 nM

Question: And the “-TΔS” value ([4]; 25 °C)?
Answer: 0.748 kcal/mol

Question: What about the ΔG ([4]; 25 °C) of the same molecule?
Answer: -7.175 kcal/mol

Question: What about the ΔH ([4]; 25 °C, ± 68.3% confidence interval) of the same molecule?
Answer: -7.923 ± 1.098 kcal/mol

Question: What about the “N (binding ratio of Eps15 fragment to FCHo1 μHD)” value ([4]; ± 68.3% confidence interval) of the same molecule?
Answer: 0.64 ± 0.06

Question: And the “binding to the SGIP1 μHD (in words)” value [2]?
Answer: slightly stronger affinity than Eps15-622–637

Question: What about the “-TΔS” value [2] of the same molecule?
Answer: 3.482 kcal/mol

Question: And the ΔG [2]?
Answer: -7.559 kcal/mol

Question: What about the ΔH [2] of the same molecule?
Answer: -11.041 ± 0.191 kcal/mol

Question: What about the “N (binding ratio of Eps15 fragment to μHD)” value [2] of the same molecule?
Answer: 0.66 ± 0.01

Question: Which Strength of affinity [5] does the source give for “Eps15 residues 595–636: Eps15 region of a previous report, first DPF motifs of the high-affinity site, source assumed human (SKEEDPFNVDSSSLTGPVADTNLDFFQSDPFVGSDPFKDDPF; UniProt P42566 595-636, looked up, fragment)” here?
Answer: low

Question: For B1, which “stoichiometry N” value [6] is on record?
Answer: 0.7

Question: What does the source list for B2?
Answer: Kd of the high-affinity site (two-site model) [7]: ~65 nM; binding result [8]: binds

Question: Which results are given for B3?
Answer: Kd [9]: 270 nM; stoichiometry N [9]: 0.59; Kd [10]: 190 nM
